In ChEMBL document CHEMBL3865781, “Recent advances in the discovery and development of antibacterial agents targeting the cell-division protein FtsZ” (Bioorg Med Chem, 2016):
Converted amounts (≈) assume the structure as drawn.

Tests used:
[1] = tested on: Mycobacterium tuberculosis; assay: Antibacterial activity against Mycobacterium tuberculosis H37Rv measured every 24 hrs for 7 days by MABA assay; type: functional
[2] = tested on: Mycobacterium tuberculosis; assay: Antibacterial activity against Mycobacterium tuberculosis NHN382 clinical isolates measured every 24 hrs for 7 days by MABA assay; type: functional
[3] = tested on: Mycobacterium tuberculosis; assay: Antibacterial activity against Mycobacterium tuberculosis TN587 clinical isolates measured every 24 hrs for 7 days by MABA assay; type: functional
[4] = tested on: Mycobacterium tuberculosis; assay: Antibacterial activity against Mycobacterium tuberculosis W210 clinical isolates measured every 24 hrs for 7 days by MABA assay; type: functional
[5] = tested on: Mycobacterium tuberculosis; assay: Antibacterial activity against Mycobacterium tuberculosis NHN20 clinical isolates measured every 24 hrs for 7 days by MABA assay; type: functional
[6] = tested on: Mycobacterium tuberculosis; assay: In vivo antibacterial activity against Mycobacterium tuberculosis str. Erdman infected in C57BL/6 mouse assessed as reduction in bacterial load in lungs at 50 mg/kg, ip bid on day 5 to 14 post infection measured on day 15 post infection; type: functional, Erdman = ATCC 35801
[7] = tested on: Mycobacterium tuberculosis; assay: In vivo antibacterial activity against Mycobacterium tuberculosis H37Rv infected in GKO-TB mouse assessed as reduction in bacterial load in spleen at 50 mg/kg, ip or po bid for 10 consecutive days; type: functional
Staphylococcus aureus [8] = assay: Antibacterial activity against Staphylococcus aureus ATCC 29213 after 18 hrs by broth microdilution assay; type: functional; conditions: ATCC 29213, 18 h
Escherichia coli [9] = assay: Antibacterial activity against Escherichia coli ATCC 25922 after 18 hrs by broth microdilution assay; type: functional; conditions: ATCC 25922, 18 h
[10] = biological target: T1, Cell division protein FtsZ (Staphylococcus aureus, UniProt P0A031); assay: Inhibition of Staphylococcus aureus ATCC 29213 N-terminal His6-tagged FtsZ GTPase activity expressed in Escherichia coli BL21(DE3) assessed as reduction in inorganic phosphate release preincubated for 10 mins followed by GTP addition after 30 mins
T1 sequence (P0A031 whole entry): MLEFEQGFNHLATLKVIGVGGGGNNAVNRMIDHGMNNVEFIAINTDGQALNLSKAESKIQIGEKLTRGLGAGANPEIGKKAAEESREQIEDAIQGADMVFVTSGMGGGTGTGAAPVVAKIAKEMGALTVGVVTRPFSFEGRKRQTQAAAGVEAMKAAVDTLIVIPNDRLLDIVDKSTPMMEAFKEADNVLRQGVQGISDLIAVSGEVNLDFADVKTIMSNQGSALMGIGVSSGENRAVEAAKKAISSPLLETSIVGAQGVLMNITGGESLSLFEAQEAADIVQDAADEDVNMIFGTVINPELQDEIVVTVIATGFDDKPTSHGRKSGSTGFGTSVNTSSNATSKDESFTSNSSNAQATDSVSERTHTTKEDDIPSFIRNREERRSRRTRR

Escherichia coli [11] = assay: Antibacterial activity against Escherichia coli ATCC 25922 after 18 hrs by broth microdilution method; type: functional; conditions: ATCC 25922, 18 h
Staphylococcus aureus [12] = assay: Antibacterial activity against methicillin-resistant Staphylococcus aureus ATCC BAA-41 after 18 hrs by broth microdilution method; type: functional; conditions: ATCC BAA-41, 18 h
[13] = Inhibition of Escherichia coli FtsZ polymerization expressed in Escherichia coli BL21 assessed as reduction in light scattering intensity in presence of GTP by fluorescence spectrometric analysis
[14] = Inhibition of Escherichia coli FtsZ GTPase activity expressed in Escherichia coli BL21 preincubated for 5 mins followed by GTP addition after 15 mins by malachite green based spectrophotometric analysis
Enterococcus faecalis = assay: Antimicrobial activity against vancomycin-sensitive Enterococcus faecalis after 18 hrs by broth microdilution method; type: functional
Klebsiella pneumoniae = assay: Antibacterial activity against Klebsiella pneumoniae ATCC BAA-1144 after 18 hrs by broth microdilution method; type: functional; conditions: ATCC BAA-1144, 18 h
Staphylococcus aureus [15] = assay: Antibacterial activity against methicillin-sensitive Staphylococcus aureus after 18 hrs by broth microdilution method; type: functional
Bacillus subtilis [16] = assay: Antibacterial activity against Bacillus subtilis; type: functional
Bacillus subtilis [17] = assay: Antibacterial activity against Bacillus subtilis 168 harboring trpC2 after 4 hrs; type: functional; conditions: subsp. subtilis str. 168, 4 h
Escherichia coli [18] = assay: Antibacterial activity against Escherichia coli K12 MG1655 after 4 hrs; type: functional; conditions: K-12 substr. MG1655, 4 h
[19] = tested on: Mycobacterium tuberculosis; assay: Antimycobacterial activity against Mycobacterium tuberculosis H37Rv after 2 weeks; type: functional; conditions: 336 h

## CN(C)c1cc2[nH]c(C3CCCCC3)nc2cc1NC(=O)c1ccc(C(F)(F)F)cc1F
[1]
  MIC99: 0.18 µg/mL (≈ 0.401 µM)
[2]
  MIC99: 0.16 µg/mL (≈ 0.357 µM)
[3]
  MIC99: 0.24 µg/mL (≈ 0.535 µM)
[4]
  MIC99: 0.31 µg/mL (≈ 0.691 µM)
[5]
  MIC99: 0.16 µg/mL (≈ 0.357 µM)
[6]
  Activity: 5.7 - 6.3 log10CFU
[7]
  Activity: 3.9 - 5 log10CFU

## CN(C)c1cc2[nH]c(C3CCCCC3)nc2cc1NC(=O)c1ccc(OC(F)(F)F)cc1F
[1]
  MIC99: 0.31 µg/mL (≈ 0.667 µM)
[2]
  MIC99: 0.31 µg/mL (≈ 0.667 µM)
[3]
  MIC99: 0.31 µg/mL (≈ 0.667 µM)
[4]
  MIC99: 0.47 µg/mL (≈ 1.01 µM)
[5]
  MIC99: 0.24 µg/mL (≈ 0.517 µM)
[6]
  Activity: 5.7 - 6.3 log10CFU
[7]
  Activity: 3.9 - 5 log10CFU

## CCC(CC)c1cc([C@H]2CN3CC[C@H]2C[C@@H]3CN)nc(-c2ccncc2)n1
Staphylococcus aureus [8]
  MIC: 24.6 µM (≈ 8.99 µg/mL)
Escherichia coli [9]
  MIC: 49.6 µM (≈ 18.1 µg/mL)
[10]
  IC50: 37.5 µM

## CC(C)(C)c1ccc(-c2ncnc3c(CNC(=N)N)cccc23)cc1
Staphylococcus aureus [8]
  MIC: 449 µM (≈ 150 µg/mL)
Escherichia coli [9]
  MIC: 897 µM (≈ 299 µg/mL)
[10]
  IC50: 317 µM

## O=c1ccc2ccc(O)c(O)c2o1 [DAPHNETIN]
Escherichia coli [11]
  MIC: 32 to 128 µg/mL (≈ 180 to 719 µM)
Staphylococcus aureus [12]
  MIC: 2 to 8 µg/mL (≈ 11.2 to 44.9 µM)
[13]
  IC50: 73 µM
[14]
  IC50: 57 µM
Enterococcus faecalis
  MIC: 4 to 16 µg/mL (≈ 22.5 to 89.8 µM)
Klebsiella pneumoniae
  MIC: 32 to 128 µg/mL (≈ 180 to 719 µM)
Staphylococcus aureus [15]
  MIC: 2 to 8 µg/mL (≈ 11.2 to 44.9 µM)

## O=C(Oc1cc(OC(=O)c2ccc(O)c(Cl)c2)c2ccccc2c1)c1ccc(O)c(Cl)c1
Bacillus subtilis [16]
  MIC: 13 µM (≈ 6.1 µg/mL)

## CCc1ccc(C(=O)Nc2cc3nc(C4CCCCC4)[nH]c3cc2N(C)C)cc1
[1]
  MIC99: 0.16 µg/mL (≈ 0.41 µM)
[2]
  MIC99: 0.16 µg/mL (≈ 0.41 µM)
[3]
  MIC99: 0.16 µg/mL (≈ 0.41 µM)
[4]
  MIC99: 0.16 µg/mL (≈ 0.41 µM)

## COc1cc(OC)c(OC)cc1/C=C/C(=O)O
Escherichia coli [11]
  MIC: 32 to 128 µg/mL (≈ 134 to 537 µM)
Staphylococcus aureus [12]
  MIC: 2 to 8 µg/mL (≈ 8.39 to 33.6 µM)
[13]
  IC50: 149 µM
Enterococcus faecalis
  MIC: 4 to 16 µg/mL (≈ 16.8 to 67.2 µM)
Klebsiella pneumoniae
  MIC: 32 to 128 µg/mL (≈ 134 to 537 µM)
Staphylococcus aureus [15]
  MIC: 2 to 8 µg/mL (≈ 8.39 to 33.6 µM)

## O=C(/C=C/c1ccc(O)c(O)c1)O[C@@H]1C[C@](O)(C(=O)O)C[C@@H](O)[C@H]1O [CHLOROGENIC ACID]
Escherichia coli [11]
  MIC: 32 to 128 µg/mL (≈ 90.3 to 361 µM)
Staphylococcus aureus [12]
  MIC: 2 to 8 µg/mL (≈ 5.64 to 22.6 µM)
[13]
  IC50: 69.5 µM
Enterococcus faecalis
  MIC: 4 to 16 µg/mL (≈ 11.3 to 45.2 µM)
Klebsiella pneumoniae
  MIC: 32 to 128 µg/mL (≈ 90.3 to 361 µM)
Staphylococcus aureus [15]
  MIC: 2 to 8 µg/mL (≈ 5.64 to 22.6 µM)

## Oc1cc(O)c2c(c1)C/C(Cl)=C\Cc1cc(c(Cl)cc1O)Oc1c(O)cc(cc1O)C/C(Cl)=C\Cc1cc(c(Cl)cc1O)O2
Escherichia coli [11]
  MIC: 32 to 128 µg/mL (≈ 47.2 to 189 µM)
Staphylococcus aureus [12]
  MIC: 2 to 8 µg/mL (≈ 2.95 to 11.8 µM)
Enterococcus faecalis
  MIC: 4 to 16 µg/mL (≈ 5.9 to 23.6 µM)
Klebsiella pneumoniae
  MIC: 32 to 128 µg/mL (≈ 47.2 to 189 µM)
Staphylococcus aureus [15]
  MIC: 2 to 8 µg/mL (≈ 2.95 to 11.8 µM)

## O=c1ccc2ccccc2o1 [COUMARIN]
Escherichia coli [11]
  MIC: 32 to 128 µg/mL (≈ 219 to 876 µM)
Staphylococcus aureus [12]
  MIC: 2 to 8 µg/mL (≈ 13.7 to 54.7 µM)
Enterococcus faecalis
  MIC: 4 to 16 µg/mL (≈ 27.4 to 109 µM)
Klebsiella pneumoniae
  MIC: 32 to 128 µg/mL (≈ 219 to 876 µM)
Staphylococcus aureus [15]
  MIC: 2 to 8 µg/mL (≈ 13.7 to 54.7 µM)

## COc1cc(/C=C/C(=O)CC(=O)/C=C/c2ccc(O)c(OC)c2)ccc1O [CURCUMIN]
Escherichia coli [11]
  MIC: 32 to 128 µg/mL (≈ 86.9 to 347 µM)
Staphylococcus aureus [12]
  MIC: 2 to 8 µg/mL (≈ 5.43 to 21.7 µM)
Bacillus subtilis [17]
  IC50: 17 µM
Escherichia coli [18]
  IC50: 58 µM
Enterococcus faecalis
  MIC: 4 to 16 µg/mL (≈ 10.9 to 43.4 µM)
Klebsiella pneumoniae
  MIC: 32 to 128 µg/mL (≈ 86.9 to 347 µM)
Staphylococcus aureus [15]
  MIC: 2 to 8 µg/mL (≈ 5.43 to 21.7 µM)

## COc1cc2ccc(=O)oc2cc1O [SCOPOLETIN]
Escherichia coli [11]
  MIC: 32 to 128 µg/mL (≈ 167 to 666 µM)
Staphylococcus aureus [12]
  MIC: 2 to 8 µg/mL (≈ 10.4 to 41.6 µM)
[13]
  IC50: 41 µM
[14]
  IC50: 23 µM
Enterococcus faecalis
  MIC: 4 to 16 µg/mL (≈ 20.8 to 83.3 µM)
Klebsiella pneumoniae
  MIC: 32 to 128 µg/mL (≈ 167 to 666 µM)
Staphylococcus aureus [15]
  MIC: 2 to 8 µg/mL (≈ 10.4 to 41.6 µM)
[19]
  MIC: 42 µg/mL (≈ 219 µM)

## O=c1ccc2ccc(O)cc2o1 [UMBELLIFERONE]
[19]
  MIC: 58 µg/mL (≈ 358 µM)

## O=C(O)/C=C/c1ccccc1 [CINNAMIC ACID]
Escherichia coli [11]
  MIC: 32 to 128 µg/mL (≈ 216 to 864 µM)
Staphylococcus aureus [12]
  MIC: 2 to 8 µg/mL (≈ 13.5 to 54 µM)
[13]
  IC50: 239 µM
Enterococcus faecalis
  MIC: 4 to 16 µg/mL (≈ 27 to 108 µM)
Klebsiella pneumoniae
  MIC: 32 to 128 µg/mL (≈ 216 to 864 µM)
Staphylococcus aureus [15]
  MIC: 2 to 8 µg/mL (≈ 13.5 to 54 µM)

## O=c1ccc2cc(CCO)c(O)cc2o1
[19]
  MIC: 60 µg/mL (≈ 291 µM)

## Cc1nc2ccccc2n1C(=O)/C=C/c1ccc(F)cc1
Escherichia coli [11]
  MIC: 32 to 128 µg/mL (≈ 114 to 457 µM)
Staphylococcus aureus [12]
  MIC: 2 to 8 µg/mL (≈ 7.14 to 28.5 µM)
Enterococcus faecalis
  MIC: 4 to 16 µg/mL (≈ 14.3 to 57.1 µM)
Klebsiella pneumoniae
  MIC: 32 to 128 µg/mL (≈ 114 to 457 µM)
Staphylococcus aureus [15]
  MIC: 2 to 8 µg/mL (≈ 7.14 to 28.5 µM)
